Measurements reported in patent US9045468B2, “2,5-methano- and 2,5-ethano-tetrahydrobenzazepine derivatives and use thereof to block reuptake of norepinephrine, dopamine, and serotonin” (Albany Molecular Research, Inc., priority 2010, dated 2015).

Assays:
hDAT = hDAT (Homo sapiens (Human), UniProt Q01959); assay: DAT radioligand binding assay ([125I]RTI-55, HEK-293 membranes); details: recombinant HEK-293 membranes, [125I]RTI-55; read-out: Binding Affinity (IC50, nM) DAT
Procedure: (§1) Recombinant HEK-293 cells expressing either the hSERT, hDAT, or hNET proteins were harvested from T-175 flasks as follows. The medium was removed from the flasks and the cells rinsed with HBSS without Ca and without Mg. The cells were then incubated for 5-10 minutes in 10 mM Tris-Cl, pH 7.5, 5 mM EDTA before the cells were lifted with a combination of pipetting and scraping, as needed. The cell suspension was collected into centrifuge bottles and homogenized for 30 seconds with a Polytron homogenizer. The suspension was centrifuged for 30 minutes at 32,000×g, 4° C. The supernatant was decanted and the pellet resuspended and homogenized in 50 mM Tris-Cl, pH 7.5, 1 mM EDTA for 10 seconds. The suspension was then centrifuged again for 30 minutes at 32,000×g, 4° C. The supernatant was decanted and the pellet resuspended in 50 mM Tris-Cl, pH 7.5, 1 mM EDTA and briefly homogenized. A Bradford assay (Bio-rad) was performed and the membrane preparation diluted to 2 mg/ml with 50 mM Tris-Cl, pH 7.5, 1 mM EDTA. Aliquots were prepared, and then frozen and stored at −80° C.
Compounds were dissolved in 100% DMSO at a concentration 100 times the desired highest assay concentration, serially diluted 1:3 in 100% DMSO, and 0.4 μl/well of each solution was dispensed to a Nunc polypropylene, round bottom, 384-well plate. […] 20 ul/well of a 2× membrane preparation (12.5 μg/ml in 30 mM sodium phosphate buffer, pH 7.9 at 4° C.) and 20 μl/well of a 2× radioligand solution (250 pM [^125I]RTI-55 in 30 mM sodium phosphate buffer, pH 7.9 at 4° C.) were added to the well and the reaction incubated for 1 hour at room temperature. The contents of the assay plate were then transferred to a Millipore MultiscreenHTS GF/B filter plate which was pretreated with 0.5% PEI for at least one hour. The plate was vacuum-filtered and washed with 7 washes of 100 μl/well 50 mM Tris-Cl, pH 7.5, 120 mM NaCl, 5 mM KCl chilled to 4° C. The filtration and washing were completed in less than 90 seconds. The plates were air-dried overnight, 12 μl/well of MicroScint scintillation fluid added, and the plates counted in a Trilux.
(§2) Each plate was run in triplicate, and the concentration response curve thus generated was fit using the four-parameter dose response equation, Y=Bottom+(Top-Bottom)/(1+10^((Log IC50−X)*HillSlope)) in order to determine the IC50 value for each compound. The radioligand concentration chosen for each assay corresponds to the Kd concentration determined through saturation binding analysis for each assay.

hNET = hNET (Homo sapiens (Human), UniProt P23975); assay: NET radioligand binding assay ([3H]nisoxetine, HEK-293 membranes); details: recombinant HEK-293 membranes, [3H]nisoxetine; read-out: Binding Affinity (IC50, nM) NET
Sequence of hNET (P23975 whole entry): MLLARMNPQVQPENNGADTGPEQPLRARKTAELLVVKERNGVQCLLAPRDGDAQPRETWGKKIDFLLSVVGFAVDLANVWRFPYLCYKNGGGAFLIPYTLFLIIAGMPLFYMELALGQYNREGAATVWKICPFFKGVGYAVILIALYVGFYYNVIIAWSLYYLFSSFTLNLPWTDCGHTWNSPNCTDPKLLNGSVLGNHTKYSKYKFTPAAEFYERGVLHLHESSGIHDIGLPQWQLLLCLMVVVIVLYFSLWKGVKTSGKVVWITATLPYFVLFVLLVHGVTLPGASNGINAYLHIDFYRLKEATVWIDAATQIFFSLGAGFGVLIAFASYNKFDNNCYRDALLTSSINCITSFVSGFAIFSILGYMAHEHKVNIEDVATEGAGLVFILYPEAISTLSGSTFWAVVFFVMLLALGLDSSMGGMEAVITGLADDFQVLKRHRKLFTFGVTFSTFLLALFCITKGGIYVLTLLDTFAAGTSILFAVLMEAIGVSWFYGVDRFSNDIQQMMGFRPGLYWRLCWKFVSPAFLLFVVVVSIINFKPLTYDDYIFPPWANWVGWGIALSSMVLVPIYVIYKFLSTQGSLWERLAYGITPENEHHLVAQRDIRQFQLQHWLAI
Procedure: as §1, with “The” for “Recombinant HEK-293 cells expressing either the hSERT, hDAT, or hNET proteins were harvested from T-175 flasks as follows. The”
Compounds were dissolved in 100% DMSO at a concentration 100 times the desired highest assay concentration, serially diluted 1:3 in 100% DMSO, and 1.0 μl/well of each solution was dispensed to a Nunc polypropylene, round bottom, 384-well plate. […] 50 μl/well of a 2× membrane preparation (0.4 mg/ml in 50 mM Tris-Cl, pH 7.5, 120 mM NaCl, 5 mM KCl) and 50 μl/well of a 2× radioligand solution (4 nM [^3H]nisoxetine in 50 mM Tris-Cl, pH 7.5, 120 mM NaCl, 5 mM KCl) were added to the well and the reaction incubated for 1 hour at room temperature. The contents of the assay plate were then transferred to a Millipore MultiscreenHTS GF/B filter plate which was pretreated with 0.5% PEI for at least one hour. The plate was vacuum filtered and washed with 7 washes of 100 μl/well 50 mM Tris-Cl, pH 7.5, 120 mM NaCl, 5 mM KCl chilled to 4° C. The filtration and washing were completed in less than 90 seconds. The plates were air-dried overnight, 12 μl/well of MicroScint scintillation fluid added, and the plates counted in a Trilux.
as §2

hSERT = hSERT (Homo sapiens (Human), UniProt P31645); assay: SERT radioligand binding assay ([125I]RTI-55, HEK-293 membranes); details: recombinant HEK-293 membranes, [125I]RTI-55; read-out: Binding Affinity (IC50, nM) SERT
Sequence of hSERT (P31645 whole entry): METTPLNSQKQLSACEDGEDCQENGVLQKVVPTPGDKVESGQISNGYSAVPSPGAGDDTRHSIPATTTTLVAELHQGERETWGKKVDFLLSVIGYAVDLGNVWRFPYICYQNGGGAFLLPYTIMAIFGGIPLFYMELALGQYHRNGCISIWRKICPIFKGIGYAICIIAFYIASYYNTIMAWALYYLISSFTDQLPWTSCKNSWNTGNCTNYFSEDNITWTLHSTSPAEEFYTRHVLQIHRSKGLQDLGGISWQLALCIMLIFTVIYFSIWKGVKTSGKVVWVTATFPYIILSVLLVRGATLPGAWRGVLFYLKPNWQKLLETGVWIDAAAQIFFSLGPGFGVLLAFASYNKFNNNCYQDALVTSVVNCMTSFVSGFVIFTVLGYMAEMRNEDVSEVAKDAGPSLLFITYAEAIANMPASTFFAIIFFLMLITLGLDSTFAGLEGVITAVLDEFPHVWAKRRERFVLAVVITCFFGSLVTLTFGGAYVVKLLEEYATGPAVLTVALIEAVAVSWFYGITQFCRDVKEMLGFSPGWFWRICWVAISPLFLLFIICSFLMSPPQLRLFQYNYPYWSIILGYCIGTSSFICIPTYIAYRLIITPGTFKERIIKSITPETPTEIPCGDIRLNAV
Procedure: as §1, with “The” for “Recombinant HEK-293 cells expressing either the hSERT, hDAT, or hNET proteins were harvested from T-175 flasks as follows. The”
Compounds were dissolved in 100% DMSO at a concentration 100 times the desired highest assay concentration, serially diluted 1:3 in 100% DMSO, and 0.4 μl/well of each solution was dispensed to a Nunc polypropylene, round bottom, 384-well plate. […] The contents of the assay plate were then transferred to a Millipore MultiscreenHTS GF/B filter plate which was pretreated with 0.5% PEI for at least one hour. The plate was vacuum filtered and washed with 7 washes of […] 50 mM Tris-Cl, pH 7.5, 120 mM NaCl, 5 mM KCl chilled to 4° C. The filtration and washing were completed in less than 90 seconds. The plates were air-dried overnight, 12 μl/well of MicroScint scintillation fluid added, and the plates counted in a Trilux.
as §2

SERT = assay: Ex vivo transporter occupancy assay, SERT ([3H]citalopram, brain tissue); type: in vivo; details: dosed orally, 3 mg/kg, time until sacrifice 3 h
Excerpt: (§3) The general procedure for brain tissue collection and transporter occupancy assessment is briefly described as follows. Mice were sacrificed by asphyxiation in CO2, rats by decapitation and dogs by IV injection of euthanasia solution. For mice and rats, after the brains were removed from the skull, the forebrain tissue (removal of the brainstem and cerebellum) was used for SERT, NET, and DAT occupancy assessment. In dogs, the striatum was dissected for DAT occupancy and the remaining forebrain tissue (without the striatum, brainstem, and cerebellum) was used for SERT and NET occupancy assessment. The brain tissues were frozen in chilled isopentane and stored at −80° C. until homogenization.
(§4) The brain tissues were thawed and then homogenized using a polytron homogenizer (Kinematica). Sample aliquots were frozen immediately and stored at −80° C. Protein content was measured for each sample using a Coomassie protein assay kit (Pierce).
(§5) On the day of ex vivo binding for occupancy assessment, frozen sample aliquots were thawed and needle homogenized, and 100 μg of the tissue was incubated for SERT, NET, and DAT binding under assay conditions summarized in Table 1. After incubation, the reactions were terminated by the addition of ice-cold assay buffer and rapid filtration through a Brandel Cell Harvester using FPXLR-196 filters. The filters were washed twice with ice-cold incubation buffer, punched into a clear plate prior to the addition of 200 ul scintillation fluid per well. Radioligand was measured using a Wallac Microbeta liquid scintillation counter.
(§6) The specific binding was calculated by subtracting the value of the non-specific binding from that of the total binding in each sample. The percent occupancy was calculated as (1−specific binding in drug treated/specific binding in vehicle treated)×100%. […] Nonlinear regression was performed using GraphPad Prism version 3.00 (GraphPad Software, San Diego, Calif.).

NET = assay: Ex vivo transporter occupancy assay, NET ([3H]nisoxetine, brain tissue); type: in vivo; details: dosed orally, 3 mg/kg, time until sacrifice 3 h
Excerpt: as §3, §4
as §5, with “After incubation, the reactions were terminated by the addition of ice-cold assay buffer and rapid filtration through a Brandel Cell Harvester using FPXLR-196 filters.” left out
as §6

Sequence of hDAT (Q01959 whole entry): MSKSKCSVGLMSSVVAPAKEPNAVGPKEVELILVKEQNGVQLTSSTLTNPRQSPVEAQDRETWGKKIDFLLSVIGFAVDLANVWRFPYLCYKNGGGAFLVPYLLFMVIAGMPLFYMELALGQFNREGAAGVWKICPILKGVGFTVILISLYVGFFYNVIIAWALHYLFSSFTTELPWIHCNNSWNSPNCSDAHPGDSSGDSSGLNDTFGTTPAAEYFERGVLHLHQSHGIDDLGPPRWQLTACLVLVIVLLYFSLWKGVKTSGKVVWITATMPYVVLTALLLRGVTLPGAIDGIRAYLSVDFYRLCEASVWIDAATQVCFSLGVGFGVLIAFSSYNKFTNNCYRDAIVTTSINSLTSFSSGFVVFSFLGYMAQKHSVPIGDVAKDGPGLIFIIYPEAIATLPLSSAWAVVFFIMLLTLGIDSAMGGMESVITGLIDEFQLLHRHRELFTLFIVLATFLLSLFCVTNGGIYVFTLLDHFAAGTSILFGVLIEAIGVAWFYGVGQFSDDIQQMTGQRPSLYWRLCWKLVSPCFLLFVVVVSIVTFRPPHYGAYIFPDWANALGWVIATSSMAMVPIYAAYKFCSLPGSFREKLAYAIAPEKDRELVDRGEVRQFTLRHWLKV

| Compound | IC50 (hDAT) [nM] | IC50 (hNET) [nM] | IC50 (hSERT) [nM] | % Occupancy SERT (SERT) [%] | % Occupancy NET (NET) [%] |
| --- | --- | --- | --- | --- | --- |
| Clc1ccc(C23CCN(CC2)Cc2cc(-c4ccc5ncnn5c4)ccc23)cc1Cl [Example 37, 8-([1,2,4]triazolo[1,5-a]pyridin-6-yl)-5-(3,4-dichlorophenyl)-2,5-ethano-2,3,4,5-tetrahydro-1H-benzo[c]azepine] | 18.5 | 119 | 8.6 | – | – |
| FC(F)Oc1ccc(-c2ccc3c(c2)CN2CCC3(c3ccc(Cl)c(Cl)c3)CC2)nn1 [Example 39, 5-(3,4-dichlorophenyl)-8-(6-(difluoromethoxy)pyridazin-3-yl)-2,5-ethano-2,3,4,5-tetrahydro-1H-benzo[c]azepine] | 26.1 | 53.5 | 3.8 | 59 | 41 |
| COc1ccc(-c2ccc3c(c2)CN2CCC3(c3ccc(Cl)c(Cl)c3)CC2)nn1 [Example 40, 5-(3,4-dichlorophenyl)-8-(6-methoxypyridazin-3-yl)-2,5-ethano-2,3,4,5-tetrahydro-1H-benzo[c]azepine] | 5.9 | 148 | 9.8 | – | – |
| Oc1ccc(-c2ccc3c(c2)CN2CCC3(c3ccc(Cl)c(Cl)c3)CC2)nn1 [Example 41, 6-(5-(3,4-dichlorophenyl)-2,5-ethano-2,3,4,5-tetrahydro-1H-benzo[c]azepin-8-yl)pyridazin-3-ol] | 5.1 | 79.2 | 5 | – | – |
| Cc1cc2ncnn2cc1-c1ccc2c(c1)CN1CCC2(c2ccc(Cl)c(Cl)c2)CC1 [Example 43, 5-(3,4-dichlorophenyl)-2,5-ethano-8-(7-methyl-[1,2,4]triazolo[1,5-a]pyridin-6-yl)-2,3,4,5-tetrahydro-1H-benzo[c]azepine] | 43.8 | 373 | 18.9 | – | – |
| Clc1ccc(C23CCN(CC2)Cc2cc(Oc4cnccn4)ccc23)cc1Cl [Example 44, 5-(3,4-dichlorophenyl)-2,5-ethano-8-(pyrazin-2-yloxy)-2,3,4,5-tetrahydro-1H-benzo[c]azepine] | 33.9 | 161 | 4.7 | – | – |
| FC(F)Oc1ccc2c(c1)CN1CCC2(c2ccc(Cl)c(Cl)c2)CC1 [Example 46, 5-(3,4-dichlorophenyl)-2,5-ethano-8-(difluoromethoxy)-2,3,4,5-tetrahydro-1H-benzo[c]azepine] | 55.2 | 140 | 3 | – | – |
| FC(F)(F)c1ccc(Oc2ccc3c(c2)CN2CCC3(c3cccc(Cl)c3)CC2)nn1 [Example 49, 5-(3-chlorophenyl)-2,5-ethano-8-(6-(trifluoromethyl)pyridazin-3-yloxy)-2,3,4,5-tetrahydro-1H-benzo[c]azepine] | 55.9 | 451 | 24.2 | – | – |
| FC(F)(F)c1ccc(C23CCN(CC2)Cc2cc(Oc4ccc(C(F)(F)F)nn4)ccc23)cc1 [Example 50, 2,5-ethano-5-(4-(trifluoromethyl)phenyl)-8-(6-(trifluoromethyl)pyridazin-3-yloxy)-2,3,4,5-tetrahydro-1H-benzo[c]azepine] | 614 | 1050 | 10.9 | – | – |
| Fc1ccc(C23CCN(CC2)Cc2cc(Oc4ccc(C(F)(F)F)nn4)ccc23)cc1F [Example 51, 5-(3,4-difluorophenyl)-2,5-ethano-8-(6-(trifluoromethyl)pyridazin-3-yloxy)-2,3,4,5-tetrahydro-1H-benzo[c]azepine] | 63.2 | 231 | 20.2 | – | – |
| Fc1ccc(C23CCN(CC2)Cc2cc(Oc4ccc(C(F)(F)F)nn4)ccc23)cc1 [Example 52, 5-(4-fluorophenyl)-2,5-ethano-8-(6-(trifluoromethyl)pyridazin-3-yloxy)-2,3,4,5-tetrahydro-1H-benzo[c]azepine] | 42.8 | 206 | 8.9 | – | – |
| Fc1ccc(C23CCN(CC2)Cc2cc(-c4ccc(C(F)(F)F)nn4)ccc23)cc1Cl [Example 53, 5-(3-chloro-4-fluorophenyl)-2,5-ethano-8-(6-(trifluoromethyl)pyridazin-3-yl)-2,3,4,5-tetrahydro-1H-benzo[c]azepine] | 120 | 345 | 2.1 | – | – |
| Fc1ccc(C23CCN(CC2)Cc2cc(-c4ccc5ncnn5c4)ccc23)cc1Cl [Example 54, 8-([1,2,4]triazolo[1,5-a]pyridin-6-yl)-5-(3-chloro-4-fluorophenyl)-2,5-ethano-2,3,4,5-tetrahydro-1H-benzo[c]azepine] | 78 | 541 | 4.4 | – | – |
